The record followed here is PubChem BioAssay (NCI).

Among the test systems are U251 CNS; SK-MEL-5 melanoma; OVCAR-8 ovarian; NCI-H23 lung; A498 renal; SK-MEL-28 melanoma; SW-620 colon; 786-0 renal; NCI-H226 lung; HOP-62 NSCLC.
What all share (assay): NCI anticancer screen, dose series, 48 h

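Interpolation was linear, between the two tested concentrations surrounding the appropriate level; five concentrations were tested over 48 hours in 96-well plates. GI50: concentration for 50% inhibition of growth. TGI: concentration producing complete growth inhibition.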 Some results are limits rather than exact numbers.

On to `O=C(CCN1CCN(c2ccccc2)CC1)N1CCc2c([nH]c3ccccc23)C1c1cccnc1` (centres undefined), for which the TGI is 30 µM in the experiment on U251 CNS; 28.9 µM in the experiment with SK-MEL-5 melanoma; 30.4 µM in the experiment with OVCAR-8 ovarian; 57.7 µM with NCI-H23 lung; 37.7 µM with A498 renal; 29.1 µM in the experiment on SK-MEL-28 melanoma. In addition, the TGI turned out to be 32.7 µM with SW-620 colon, 29.5 µM in the experiment with 786-0 renal, 71.9 µM in the experiment with NCI-H226 lung and 40.4 µM in the experiment with HOP-62 NSCLC.

For `C#Cc1c(/C=C/C(=O)OCC)ccc2ccccc12`, the GI50 was 11.2 µM in the experiment with U251 CNS; 15.2 µM with SK-MEL-5 melanoma; 35.1 µM in the experiment on OVCAR-8 ovarian; 20.1 µM in the experiment with NCI-H23 lung; 15.2 µM with A498 renal; 13.7 µM in the experiment on SK-MEL-28 melanoma. Besides, the GI50 is 32.2 µM in the experiment with SW-620 colon, 27.5 µM in the experiment with 786-0 renal, 19.9 µM in the experiment with NCI-H226 lung and 28.5 µM with HOP-62 NSCLC. Besides, the TGI with U251 CNS is 31.7 µM; with SK-MEL-5 melanoma, 31.9 µM; in the experiment on OVCAR-8 ovarian, above 100 µM; with NCI-H23 lung it was 47.9 µM; in the experiment on A498 renal it was 37.8 µM; in the experiment on SK-MEL-28 melanoma it was 39.7 µM. Also, the TGI with SW-620 colon is above 100 µM; in the experiment with 786-0 renal, 74 µM; with NCI-H226 lung, 82.9 µM; in the experiment with HOP-62 NSCLC, 95.5 µM.

Regarding `NCCOCCOCCNc1nc(-c2ccccc2)nc(N2CCN(c3ccccn3)CC2)n1`, the GI50 in the experiment on U251 CNS was 12.1 µM; with SK-MEL-5 melanoma, 8.37 µM; in the experiment with OVCAR-8 ovarian, 15.8 µM; in the experiment on NCI-H23 lung, 16.6 µM; with A498 renal, 3.91 µM; in the experiment on SK-MEL-28 melanoma it was 3.9 µM. The GI50 with SW-620 colon is 13.2 µM; with 786-0 renal it was 12.6 µM; with NCI-H226 lung, 17.1 µM; in the experiment with HOP-62 NSCLC, 16.7 µM. Moreover, the TGI with U251 CNS is 26.3 µM; in the experiment with SK-MEL-5 melanoma, 20.9 µM; in the experiment on OVCAR-8 ovarian, 34.5 µM; with NCI-H23 lung it was 31.3 µM; in the experiment with A498 renal, 18.4 µM; in the experiment with SK-MEL-28 melanoma, 13.8 µM. The TGI stood at 28.4 µM in the experiment on SW-620 colon, 26 µM in the experiment on 786-0 renal, 32.3 µM in the experiment on NCI-H226 lung and 31 µM with HOP-62 NSCLC.

Regarding `Cc1nc2ccccc2c(/C=C/c2ccc(Cl)cc2)c1C(=O)/C=C/c1ccc(C(F)(F)F)cc1`, the GI50 in the experiment with U251 CNS is 0.264 µM; in the experiment with SK-MEL-5 melanoma, 1.34 µM; with OVCAR-8 ovarian it was 0.433 µM; with NCI-H23 lung, 0.827 µM; in the experiment with A498 renal, 1.32 µM; in the experiment on SK-MEL-28 melanoma it was 0.369 µM. Further, the GI50 is 0.251 µM in the experiment on SW-620 colon, 0.33 µM with 786-0 renal, 0.306 µM in the experiment with NCI-H226 lung and 0.877 µM in the experiment with HOP-62 NSCLC. The TGI is 0.865 µM in the experiment with U251 CNS; 2.63 µM in the experiment with SK-MEL-5 melanoma; 2.2 µM in the experiment with OVCAR-8 ovarian; 2.78 µM in the experiment with NCI-H23 lung; 2.62 µM in the experiment on A498 renal; 1.29 µM in the experiment on SK-MEL-28 melanoma. Moreover, the TGI in the experiment with SW-620 colon turned out to be 0.761 µM; in the experiment on 786-0 renal, 1.26 µM; in the experiment on NCI-H226 lung it was 0.911 µM; with HOP-62 NSCLC it was 2.31 µM.

Take `C#CCSc1cc(Cl)c(C)cc1S(=O)(=O)Nc1nc2ccccc2o1`: the GI50 with U251 CNS was 38.5 µM; with SK-MEL-5 melanoma, 20.5 µM; with OVCAR-8 ovarian, 40.4 µM; in the experiment on NCI-H23 lung it was 35.9 µM; in the experiment with A498 renal, 33.4 µM; in the experiment with SK-MEL-28 melanoma, 54.7 µM. Besides, the GI50 in the experiment with SW-620 colon is 46.7 µM; with 786-0 renal, 31.9 µM; in the experiment on NCI-H226 lung, 57 µM; with HOP-62 NSCLC, 29 µM. In addition, the TGI in the experiment with U251 CNS was above 100 µM; with SK-MEL-5 melanoma it was 40.2 µM; in the experiment on OVCAR-8 ovarian, above 100 µM; in the experiment on NCI-H23 lung, 87.8 µM; with A498 renal, 87.1 µM; in the experiment on SK-MEL-28 melanoma, above 100 µM. Further, the TGI is above 100 µM in the experiment with SW-620 colon, 91.4 µM with 786-0 renal, above 100 µM with NCI-H226 lung and 65.6 µM in the experiment on HOP-62 NSCLC.

Take `Cc1nnc(-c2cccc(-c3ccc(C(=O)NCC4CC4)cc3)c2)o1`: the GI50 is above 25 µM in the experiment on U251 CNS; above 25 µM in the experiment with SK-MEL-5 melanoma; above 25 µM in the experiment with OVCAR-8 ovarian; above 25 µM with NCI-H23 lung; above 7.79 µM in the experiment on A498 renal; above 25 µM in the experiment on SK-MEL-28 melanoma. The GI50 in the experiment on SW-620 colon, with 786-0 renal, with NCI-H226 lung and in the experiment with HOP-62 NSCLC was above 25 µM in each case. Further, the TGI in the experiment with U251 CNS, in the experiment with SK-MEL-5 melanoma, in the experiment with OVCAR-8 ovarian, in the experiment on NCI-H23 lung, in the experiment on A498 renal and in the experiment on SK-MEL-28 melanoma was above 25 µM each time. Further, the TGI with SW-620 colon, with 786-0 renal, in the experiment on NCI-H226 lung and in the experiment on HOP-62 NSCLC was above 25 µM throughout.

In the case of `O=Nc1ccc(NO)c2ccccc12`, the GI50 was 13.1 µM with U251 CNS; 11.7 µM with SK-MEL-5 melanoma; 3.24 µM in the experiment with OVCAR-8 ovarian; 7.03 µM in the experiment on NCI-H23 lung; 18.9 µM in the experiment with A498 renal; 15.1 µM with SK-MEL-28 melanoma. Moreover, the GI50 is 3.87 µM in the experiment with SW-620 colon, 18.6 µM in the experiment with 786-0 renal, 16.8 µM in the experiment with NCI-H226 lung and 14.6 µM in the experiment on HOP-62 NSCLC. For the same compound, the TGI in the experiment on U251 CNS was found to be 26.1 µM; in the experiment on SK-MEL-5 melanoma it was 24.2 µM; in the experiment on OVCAR-8 ovarian, 14.6 µM; in the experiment with NCI-H23 lung, 23.5 µM; in the experiment on A498 renal it was 36 µM; in the experiment on SK-MEL-28 melanoma, 28.6 µM. For the same compound, the TGI amounted to 21.5 µM in the experiment on SW-620 colon, 33.1 µM in the experiment with 786-0 renal, 38.4 µM in the experiment on NCI-H226 lung and 27.9 µM in the experiment with HOP-62 NSCLC.

`C/C1=C/C(=O)O[C@@H]2C[C@@H](CC[C@H](C)/C=C\C=C\CC1)O[C@@](O)([C@@H]1CSC(=O)N1)C2`: the TGI in the experiment on U251 CNS is above 10 µM; with SK-MEL-5 melanoma it was above 2.76 µM; with OVCAR-8 ovarian, above 10 µM; with NCI-H23 lung, above 10 µM; in the experiment with A498 renal, 0.358 µM; with SK-MEL-28 melanoma, 5.41 µM. The TGI in the experiment with 786-0 renal was above 10 µM; in the experiment on NCI-H226 lung, above 2.9 µM; with HOP-62 NSCLC, 0.724 µM.
